The values below come from patent US20060079497A1, “Lavendamycin analogues and methods of synthesizing and using lavendamycin analogues” (Ball State University, priority 2004, published 2006).

Structures are written as SMILES. Bounds are passed on as bounds.

One series concerns tumor. Description: Antitumor activity (applicant's earlier studies).
Series [1] concerns mice. Conditions: cited from earlier work.
Series [2] relates to mice. Description: Animal toxicity studies in mice (National Cancer Institute and other studies). Conditions: SCID mice, 300 mg/kg/day for 10 days.
A short description of series [3]: Cytotoxicity assay (MTT), human lymphocytic cell lines, pooled data. Format: cell-based. Conditions: human lymphocytic cell lines CCRF-CEM and H-9, pooled data, H-9 and CEM inhibited by 50%, read-out: Mean CC50 (Human Cell Lines) ± SEM (no. of expts). On the procedure:
(§1) Normal murine spleen cells were washed in HBSS, cultured at 2.5×10^6 or 5×10^6 cells per mL in RPMI 1640 (with Hepes) complete medium with 2 mM-L-glutamine, 1 mM sodium pyruvate, 0.05 mM β-mercaptoethanol, penicillin, streptomycin, and amphotericin B with 10% fetal calf serum and Concanavalin A (ConA) at 2.5 μg/mL in a 96-well microtiter plate. A range of diluted analogs were added to triplicate culture wells and the cells were incubated at 37° C. in 5% CO2. Wells containing cells, media and ConA were used as controls. Forty-eight hours post incubation, 20 μL of the vital dye MTT (3-[4,5-Dimethylthiazol-2-yl]-2,5-diphenyltetrazolium bromide; thiazolyl blue) at 5 mg/mL was added to each well and the cultures re-incubated for 4-6 hours. Following centrifugation, the supernatants were decanted and the stained cells were resuspended in 100 μL of 0.4% HCl acidified isopropanol. The optical densities of each well were read at 600 nm using a Cambridge Technologies series 700 microplate reader. The human lymphocytic cell lines CCRF-CEM (ATCC: HTB 176) and H-9 (ATCC: CCL 119) were subcultured from recently cultured cells grown in complete RPMI 1640 medium as described above but without the β-mercaptoethanol and ConA at 6.25×10^5 and 2×10^6 per mL in a 96 well culture plate. These cell numbers represented log phase and early stationary phase of the freshly cultured cells. As these cell lines rapidly reproduce without mitogenic stimulation, Con A was not used. A range of analogues or media alone was added in triplicate to the cultures and the cultures incubated, pulsed with MTT, harvested and their growth estimated as described above for the murine cultures. The CC50 or the concentration of drug which inhibited cell growth as estimated by MTT formazan production to 50% of that of untreated control cells was determined by linear interpolation for each lavendamycin analog.

Series [4] deals with T1, HIV reverse transcriptase (HIV-RT) (Human immunodeficiency virus type 1 group M subtype B, UniProt P04585).
T1 construct: 1 unit/mL of HIV-RT (Worthington Biochemical Corp., Freehold, N.J.); purchased Worthington Biochemical Corp., Freehold, N.J
Put plainly: HIV-RT assay (3H-TTP incorporation, modified assay of Okada et al.). Format: biochemical. The following applies: Mean IC50 ± SEM (no. of expts), 50% inhibition of HIV RT activity toward 1 unit of enzyme. On the procedure: Briefly, the analogues were initially dissolved in either DMSO or HEPES buffer (pH 7.2) and then diluted to the appropriate concentration before addition to the assay mixtures. […] Several control wells without any inhibitors were also included on each microtiter plate. The reactions were allowed to proceed for 1 h at 37° C. […] A more detailed description of reaction conditions is provided below in the Examples. The concentration of drug which inhibited 50% of the enzyme activity (IC50) was determined by using the computer software program Calcusyn, which plots the dose-effect curves from the inhibition data and calculates the IC50 for each drug.
The assay procedure described below is adapted from Okada et al. (Okada, H.; Mukai, H.; Inouye, Y; Nakamura, S. “Biological Properties of Streptonigrin Derivatives II. Inhibition of Reverse Transcriptase Activity,” J. Antibiot., 1986, 39, 306-308). The lavendamycin analogs were initially dissolved in DMSO at a concentration of 1 mg/mL. Occasionally, mild sonication and heat were used to dissolve the less soluble compounds. The dissolved analogs were then serially diluted in distilled water to achieve concentrations in the final reaction mixture ranging from 0.5-15 μM. In addition to the lavendamycin analogs, the final reaction mixture contained 100 mM Tris-HCl (pH 8.0), 5 mM MgCl2, 5 mM dithiothreitol, 60 mM NaCl, 0.2 mM [^3H] thymidine triphosphate(5 μCi well), 4 μg/mL poly (rA)-oligo(dT)12-18 (Amersham Pharmacia Biotech, Piscataway, N.J.) and 1 unit/mL of HIV-RT (Worthington Biochemical Corp., Freehold, N.J.) in a total volume of 300 μL. For each assay, the reaction mixture containing 8× buffer, double distilled H2O, ^3HTTP, template-primer and HIV-RT was pre-mixed in a 15-mL sterile tube in quantities required for the particular experiment. After adding the enzyme, the reaction mixture was mixed and kept on ice. The inhibitors, either AZT(Moravek Biochemicals, Brea, Calif.), analogs or both were added to appropriate wells in a 24 well microtiter plate and ddH2O was added to each well to bring the volume of all test wells to 100 μL. Two hundred μL of the chilled reaction mixture was then added to each of the test wells, mixed, and incubated for 1 hr at 37° C. Several control wells with no inhibitors were included on each test plate. After stopping the reactions with 25 μL 0.1 M EDTA, triplicate samples of 15 μL from each test well were spotted on DE81 ion exchange filter paper squares (Whatman Paper, Maidstone, England). After drying, each filter was washed for 10 minutes three times with 5% TCA-NHPO4, three times with 0.6M NaCl-[…] Na Citrate, one time with ddH2O and one time with 95% ethanol. After drying the individual filter papers were added to 5 mL Scintiverse E (Fisher Scientific, Chicago, Ill.) scintillation fluid and the amount of 3H-TTP uptake measured as counts per minute on a Beckman liquid scintillation counter. […] The results were then analyzed using Calcusyn, a windows software program for dose effect analysis designed by T. -C. Chou and M. P. Hayball and published by Biosoft® (UK).

Series [5] can be described thus: Cytotoxicity assay (MTT), normal murine spleen cells stimulated with concanavalin A. Format: cell-based. Conditions: normal murine spleen cells stimulated with concanavalin A; normal mouse spleen stimulated with concanavalin A inhibited by 50%; read-out: Mean CC50 (Normal Mouse Spleen) ± SEM (no. of expts). The procedure: as §1
Series [6] is described as follows: Animal toxicity studies in mice (National Cancer Institute and other studies). The following applies: mouse, in vivo.

Broadly, the melting point is the temperature of the solid-liquid transition. The term CC50 denotes the concentration giving 50% cytotoxicity. The IC50 is the midpoint of a concentration-inhibition curve. A high value points to weaker potency.

`COC(=O)c1nc(-c2ccc3c(n2)C(=O)C(N)=CC3=O)c2[nH]c3ccccc3c2c1C` [Compound 2b, lavendamycin methyl ester, reference compound]: the antitumor activity entry in the series on tumor was “highly active antitumor agents”. Compound `COC(=O)c1nc(-c2ccc3c(n2)C(=O)C(N)=C(OC)C3=O)c2[nH]c3ccccc3c2c1C` showed a melting point greater than 280 °C. Take `Cc1c(C(=O)O)nc(-c2ccc3c(n2)C(=O)C(N)=CC3=O)c2[nH]c3ccccc3c12` [lavendamycin]: in the series on mice [1] (reported), the maximum tolerated dose is recorded as 12.8 mg/kg. Turning to `COC1=C(N)C(=O)c2nc(-c3nc(C(=O)O)c(C)c(-c4ccc(OC)c(OC)c4O)c3N)ccc2C1=O` [streptonigrin], the lethal dose in the series with mice [1] was no less than 0.4 mg/kg. With `COc1cccc2c1C(=O)c1c(O)c3c(c(O)c1C2=O)C[C@@](O)(C(=O)CO)C[C@@H]3O[C@H]1C[C@H](N)[C@H](O)[C@H](C)O1` [adriamycin], the maximally tolerated dose result with mice [1] (once a week for three weeks) is on record as “below 10 mg/kg”. As for `CCCCCCCCOC(=O)c1cc2c([nH]c3ccccc32)c(-c2ccc3c(n2)C(=O)C(NC(C)=O)=CC3=O)n1` [Compound 15, 7-N-Acetyldemethyllavendamycin n-Octyl Ester], in the series with mice [2], the tolerability result is on record as “no animal death or loss of weight”. With `NC(=O)c1cc2c([nH]c3ccccc32)c(-c2ccc3c(n2)C(=O)C(N)=CC3=O)n1` [Compound 21, Demethyllavendamycin Amide], the half-maximal cytotoxic concentration (CC50) at 48 h in series [3] was 17 ± 3 µM; in series [5] it was 15 ± 2 µM. Also, half-maximal inhibition in series [4] (IC50) was put at 20.5 ± 5 µM. In the series with tumor, the antitumor activity entry is “highly active antitumor agents”. The compound also showed an MTD in series [6] of 400 mg/kg. Consider `COC(=O)c1cc2c([nH]c3ccccc32)c(-c2ccc3c(n2)C(=O)C(N)=C(OC)C3=O)n1`, for which the melting point was greater than 280 °C.
